Data set [1] is described as follows: Cmax in CD-1 mouse at 10 mg/kg, po. The format is ADME, organism-based. More on the design: dose 10 mg/kg, route po. Particulars: in vivo.
A short description of data set [2]: Tmax in CD-1 mouse at 10 mg/kg, po. Particulars: in vivo. The data set is classed as ADME, organism-based.
Data set [3] in a line: AUClast in CD-1 mouse at 10 mg/kg, po. The data set is classed as ADME, organism-based. More on the design: dose 10 mg/kg, route po. Particulars: in vivo.
Data set [4] can be described thus: Half life in CD-1 mouse at 10 mg/kg, po. Particulars: in vivo. The data set is classed as ADME, organism-based.
Data set [5] can be described thus: Observed MRT infinity in CD-1 mouse at 10 mg/kg, po. The format is ADME, organism-based. Particulars: in vivo.
Data set [6] can be described thus: Observed AUC infinity in CD-1 mouse at 10 mg/kg, po. On the set-up: dose 10 mg/kg, route po. Particulars: in vivo. The format is ADME, organism-based.
For data set [7], the system named is Ty-82. Nature of the data set: Antiproliferative activity against human Ty-82 cells incubated for 72 hrs by sulforhodamine B based cell counting kit-8 assay. Particulars: TY82, 72 h. The format is functional.
For data set [8], the system named is MM1.S. Put plainly: Antiproliferative activity against human MM1.S cells incubated for 72 hrs by sulforhodamine B based cell counting kit-8 assay. The format is functional.
Data set [9] has as its target Bromodomain-containing protein 4 (Homo sapiens, UniProt O60885). Put plainly: Inhibition of full length BRD4 (unknown origin) transfected in HEK293 cells incubated for 20 hrs measured by NanoBRET BRD4/Histone H3.3 interaction assay kit. The format is cell-based.
Data set [10] is described as follows: Metabolic stability in mouse liver microsomes assessed as clearance. The data set is classed as ADME, Microsome. Particulars: read-out: CLH. A general note: Microsomes from liver hold many membrane-bound enzymes, among them those of drug oxidation.
Data set [11] in a line: Metabolic stability in dog liver microsomes assessed as clearance. Particulars: read-out: CLH. The data set is classed as ADME, Canis lupus familiaris, Microsome.
Data set [12] in a line: Metabolic stability in mouse liver microsomes assessed as half life. The data set is classed as ADME, Microsome.
Data set [13] can be described thus: Toxicity in BALB/c mouse xenografted with human Ty-82 assessed as body weight loss treated at 0.25 to 0.5 mg/kg, po qd for 21 days. The data set is classed as organism-based. Particulars: in vivo, 504 h, dose 0.25-0.5 mg/kg, time 21 day. On the technique in general: In xenograft studies the graft and the host belong to different species.
A short description of data set [14]: Metabolic stability in human liver microsomes assessed as clearance. The data set is classed as ADME, Microsome. Particulars: read-out: CLH.
The nature of data set [15]: Toxicity in BALB/c mouse xenografted with human Ty-82 assessed as death treated at 0.25 to 0.5 mg/kg, po qd for 21 days. The data set is classed as organism-based. Particulars: in vivo, 504 h, dose 0.25-0.5 mg/kg, time 21 day.
Data set [16] relates to Ty-82. Nature of the data set: Antitumor activity against human Ty-82 cells xenografted in BALB/c nude mouse assessed tumor growth inhibition treated at 0.5 mg/kg, po qd for 21 days relative to control. Particulars: TY82, 504 h, time 21 day, read-out: TGI. The data set is classed as functional.
Data set [17] can be described thus: Metabolic stability in human liver microsomes assessed as half life. The format is ADME, Microsome.
A short description of data set [18]: Metabolic stability in dog liver microsomes assessed as half life. The format is ADME, Canis lupus familiaris, Microsome.
Data set [19] concerns MV4-11. Nature of the data set: Antiproliferative activity against human MV4-11 cells. The format is functional, cell-based.

The term Cmax denotes the peak of the concentration-time curve. The Tmax is the time from dosing to the highest level. For orientation: AUC(0-t) means the area under the concentration-time curve up to a stated or last time point. High values mean high exposure, low ones low exposure. The term half-life denotes the time needed for the level to fall by half in the phase considered. Broadly, the MRT is the average time that molecules of a dose stay in the body. The AUC(0-inf) is the area under the concentration-time curve extrapolated to infinity. Low values mean less exposure, high ones more exposure. A word on the IC50: it is the concentration at which inhibition is half-maximal. A high value points to weaker potency in that assay.

For `Cc1ccc(-n2nc(C(=O)N3CCCN(C(=O)c4nc(-c5ccc6c(c5)N(C5CCCC5)[C@H](C)C(=O)N6C)n(-c5ccc(C)cc5)n4)CC3)nc2-c2ccc3c(c2)N(C2CCCC2)[C@H](C)C(=O)N3C)cc1`, the Cmax in [1] worked out at 286 ng/mL. Also, the Tmax in data set [2] was 0.5 h. Moreover, the AUC(0-t) in data set [3] is 368 ng·h/mL. Besides, the half-life in data set [4] was 0.15 h. In [5], the mean residence time (MRT) amounted to 2.57 h. Further, the AUC(0-inf) in [6] was 371 ng·h/mL.
In data set [1], `Cc1ccc(-n2nc(C(=O)N(C)CCN(C)C(=O)c3nc(-c4ccc5c(c4)N(C4CCCC4)[C@H](C)C(=O)N5C)n(-c4ccc(C)cc4)n3)nc2-c2ccc3c(c2)N(C2CCCC2)[C@H](C)C(=O)N3C)cc1` yielded a Cmax of 264 ng/mL. In data set [2], the Tmax came out at 0.25 h. Moreover, in [3], the area under the curve AUC(0-t) is 124 ng·h/mL. This molecule also had a half-life in [4] of 0.49 h. This molecule also gave an MRT in [5] of 1.07 h. This molecule showed an AUC(0-inf) in data set [6] of 129 ng·h/mL.
`Cc1ccc(-n2nc(C(=O)N3CC4(C3)CN(C(=O)c3nc(-c5ccc6c(c5)N(C5CCCC5)[C@H](C)C(=O)N6C)n(-c5ccc(C)cc5)n3)C4)nc2-c2ccc3c(c2)N(C2CCCC2)[C@H](C)C(=O)N3C)cc1`: the IC50 worked out at 76 nM in data set [7] and 12.6 nM in data set [8].
The corresponding values for `Cc1ccc(-n2nc(C(=O)N3C[C@H](C)N(C(=O)c4nc(-c5ccc6c(c5)N(Cc5ccccc5)[C@H](C)C(=O)N6C)n(-c5ccc(C)cc5)n4)C[C@H]3C)nc2-c2ccc3c(c2)N(Cc2ccccc2)[C@H](C)C(=O)N3C)cc1` are 1.12 nM and 1.77 nM.
Regarding `Cc1ccc(-n2nc(C(=O)N[C@@H]3CCCC[C@H]3NC(=O)c3nc(-c4ccc5c(c4)N(C4CCCC4)[C@H](C)C(=O)N5C)n(-c4ccc(C)cc4)n3)nc2-c2ccc3c(c2)N(C2CCCC2)[C@H](C)C(=O)N3C)cc1`, the Cmax in data set [1] is 33.7 ng/mL. In data set [2], the time to peak (Tmax) came out at 2.67 h. In data set [3], this molecule came in with an area under the curve AUC(0-t) of 205 ng·h/mL. In addition, the half-life in [4] is 0.1 h. The mean residence time MRT in [5] was 11.2 h. Further, the AUC(0-inf) in data set [6] is 278 ng·h/mL.
For the molecule `Cc1ccc(-n2nc(C(=O)NCCNC(=O)c3nc(-c4ccc5c(c4)N(C4CCCC4)[C@H](C)C(=O)N5C)n(-c4ccc(C)cc4)n3)nc2-c2ccc3c(c2)N(C2CCCC2)[C@H](C)C(=O)N3C)cc1`, the Cmax in data set [1] is 33.7 ng/mL. The Tmax in data set [2] was found to be 2.76 h.
In the case of `Cc1ccc(-n2nc(C(=O)N3CCNCC3)nc2-c2ccc3c(c2)N(C2CCCC2)[C@@H](C)C(=O)N3C)cc1`, the results for the IC50 in data set [9], in data set [7] and in data set [8] were 1730 nM, over 20000 nM and over 20000 nM, respectively.
As to `Cc1ccc(-n2nc(C(=O)N3C[C@H](C)N(C(=O)c4nc(-c5ccc6c(c5)N(C5CCC5)[C@H](C)C(=O)N6C)n(-c5ccc(C)cc5)n4)C[C@H]3C)nc2-c2ccc3c(c2)N(C2CCC2)[C@H](C)C(=O)N3C)cc1`, the microsomal CLint in data set [10] is 2.4 µL/min/mg; in [11] it was 0.7 µL/min/mg; in data set [14], 0.5 µL/min/mg. The values for the half-life in data set [12], in data set [17] and in data set [18] were 9.48 h, 48.7 h and 34.7 h, respectively. The Activity result in [13] is reported as “Toxic”; in data set [15], “Non-Toxic”. Besides, the IC50 in data set [7] amounted to 0.05 nM; in data set [8] it was 0.04 nM. Moreover, in [16], the inhibition in vivo at 0.5 mg/kg is 61%.
For `Cc1ccc(-n2nc(C(=O)N3CCC4(CCN(C(=O)c5nc(-c6ccc7c(c6)N(C6CCCC6)[C@H](C)C(=O)N7C)n(-c6ccc(C)cc6)n5)C4)C3)nc2-c2ccc3c(c2)N(C2CCCC2)[C@H](C)C(=O)N3C)cc1`, the IC50 in data set [7] worked out at 2.5 nM; in data set [8], 0.74 nM.
The corresponding values for `C[C@@H]1C(=O)N(C)c2ccc(-c3nc(C(=O)N4CCN(C(=O)c5nc(-c6ccc7c(c6)N(C6CCCC6)[C@H](C)C(=O)N7C)n(-c6ccc7ccccc7c6)n5)CC4)nn3-c3ccc4ccccc4c3)cc2N1C1CCCC1` are 0.6 nM and 0.51 nM.
`Cc1sc2c(c1C)C(c1ccc(Cl)cc1)=NC(CC(=O)OC(C)(C)C)c1nnc(C)n1-2` (stereo unspecified) gave an IC50 in data set [19] of 72.2 nM.
The same measure, in the same setting: the same measure for `Cc1sc2c(c1C)C(c1ccc(Cl)cc1)=N[C@@H](CC(=O)NCCOCCOCCOCCOCCOCCOCCOCCNC(=O)C[C@@H]1N=C(c3ccc(Cl)cc3)c3c(sc(C)c3C)-n3c(C)nnc31)c1nnc(C)n1-2`: 0.17 nM.
On to `Cc1ccc(-n2nc(C(=O)NCCCNC(=O)c3nc(-c4ccc5c(c4)N(C4CCCC4)[C@H](C)C(=O)N5C)n(-c4ccc(C)cc4)n3)nc2-c2ccc3c(c2)N(C2CCCC2)[C@H](C)C(=O)N3C)cc1`, for which the maximum concentration (Cmax) in data set [1] is 58.1 ng/mL. The Tmax in data set [2] came to 0.58 h. In data set [3], this molecule displayed an AUC(0-t) of 71.5 ng·h/mL. Besides, in data set [4], the half-life was 0.74 h. For the same molecule, in data set [5], the MRT was determined as 1.75 h. The AUC(0-inf) in data set [6] is 75.8 ng·h/mL.
For the molecule `Cc1ccc(-n2nc(C(=O)N3CCN(C(=O)c4nc(-c5ccc6c(c5)N(C5CCCC5)[C@@H](C)C(=O)N6C)n(-c5ccc(C)cc5)n4)CC3)nc2-c2ccc3c(c2)N(C2CCCC2)[C@H](C)C(=O)N3C)cc1`, the IC50 turned out to be 66.6 nM in data set [9], 16.7 nM in [7] and 3.12 nM in [8].
Take `Cc1ccc(-n2nc(C(=O)N3CCNCC3)nc2-c2ccc3c(c2)N(C2CCCC2)[C@H](C)C(=O)N3C)cc1`: the values for the IC50 in data set [9], in data set [7] and in [8] were 52.2 nM, 24.1 nM and 47.4 nM, respectively.
Regarding `Cc1ccc(-n2nc(C(=O)N3C[C@H](C)N(C(=O)c4nc(-c5ccc6c(c5)N(C)[C@H](C)C(=O)N6C)n(-c5ccc(C)cc5)n4)C[C@H]3C)nc2-c2ccc3c(c2)N(C)[C@H](C)C(=O)N3C)cc1`, the microsomal CLint in data set [10] was determined as 12.6 µL/min/mg; in [11], 7.6 µL/min/mg; in [14], 6.4 µL/min/mg. Also, the half-life in data set [12] was 1.84 h; in [17], 3.62 h; in data set [18], 3.02 h.
Molecule `Cc1ccc(-n2nc(C(=O)N3CCN(C(=O)c4nc(-c5ccc6c(c5)N(C5CCCC5)[C@H](C)C(=O)N6C)n(-c5ccc(C)cc5)n4)CC3)nc2-c2ccc3c(c2)N(C2CCCC2)[C@H](C)C(=O)N3C)cc1` came in with a Cmax in data set [1] of 238 ng/mL. In addition, the time of peak concentration (Tmax) in data set [2] amounted to 1 h. In [3], the AUC(0-t) worked out at 361 ng·h/mL. The same molecule had a concentration for half-maximal inhibition (IC50) in data set [9] of 6.2 nM. For the same molecule, in data set [4], the half-life is 0.82 h. The molecule also came in with a mean residence time (MRT) in [5] of 1.69 h. This molecule also showed an AUC(0-inf) in data set [6] of 372 ng·h/mL.
On to `Cc1ccc(-n2nc(C(=O)N3C[C@H](C)N(C(=O)c4nc(-c5ccc6c(c5)N(C5CCCC5)[C@H](C)C(=O)N6C)n(-c5ccc(C)cc5C)n4)C[C@H]3C)nc2-c2ccc3c(c2)N(C2CCCC2)[C@H](C)C(=O)N3C)c(C)c1`, for which the IC50 in data set [7] was 0.75 nM; in [8] it was 0.29 nM.

The values are drawn from ChEMBL document CHEMBL5352381, “Design and development of a novel series of oral bivalent BET inhibitors with potent anticancer activities” (Eur J Med Chem, 2022).
